Results as given in PubChem BioAssay AID1963986 (Molecular Pharmacology Branch, DTP, NCI, 2024).

Test system: 171881-019-R-J1-PDC tumor spheroid viability
Assay: Anticancer human tumor 171881-019-R-J1-PDC patient-derived invasive breast carcinoma cell line growth inhibition [PI3K]
Conditions: spheroids with HUVEC and MSC; for IC50: curve of first compound; for viability, T/C: stronger effect = lower value
Summary of the method: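 High-throughput combination screen: PI3K inhibitors crossed with targeted small molecules on complex spheroids of tumor cells, HUVEC and MSCs at 37 degrees C, 5% CO2. Top concentration was at or near clinical Cmax (otherwise 10 microM), with half-log decrements.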

[1] = second compound 0.0316 µM, first compound 0.0316 µM
[2] = second compound 0.0316 µM, first compound 0.1 µM
[3] = second compound 0.0316 µM, first compound 0.316 µM
[4] = second compound 0.0316 µM, first compound 1 µM
[5] = second compound 0.0316 µM, first compound 3.16 µM
[6] = second compound 0.0316 µM, first compound 10 µM
[7] = second compound 0.1 µM, first compound 0.0316 µM
[8] = second compound 0.1 µM, first compound 0.1 µM
[9] = second compound 0.1 µM, first compound 0.316 µM
[10] = second compound 0.1 µM, first compound 1 µM
[11] = second compound 0.1 µM, first compound 3.16 µM
[12] = second compound 0.1 µM, first compound 10 µM
[13] = second compound 0.316 µM, first compound 0.0316 µM
[14] = second compound 0.316 µM, first compound 0.1 µM
[15] = second compound 0.316 µM, first compound 0.316 µM
[16] = second compound 0.316 µM, first compound 1 µM
[17] = second compound 0.316 µM, first compound 3.16 µM
[18] = second compound 0.316 µM, first compound 10 µM
[19] = second compound 1 µM, first compound 0.0316 µM
[20] = second compound 1 µM, first compound 0.1 µM
[21] = second compound 1 µM, first compound 0.316 µM
[22] = second compound 1 µM, first compound 1 µM
[23] = second compound 1 µM, first compound 3.16 µM
[24] = second compound 1 µM, first compound 10 µM
[25] = second compound 3.16 µM, first compound 0.0316 µM
[26] = second compound 3.16 µM, first compound 0.1 µM
[27] = second compound 3.16 µM, first compound 0.316 µM
[28] = second compound 3.16 µM, first compound 1 µM
[29] = second compound 3.16 µM, first compound 3.16 µM
[30] = second compound 3.16 µM, first compound 10 µM
[31] = second compound 10 µM, first compound 0.0316 µM
[32] = second compound 10 µM, first compound 0.1 µM
[33] = second compound 10 µM, first compound 0.316 µM
[34] = second compound 10 µM, first compound 1 µM
[35] = second compound 10 µM, first compound 3.16 µM
[36] = second compound 10 µM, first compound 10 µM
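Note: spheroids exposed to compound for 7 days before viability read.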
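Throughout, for viability, T/C: 100% = DMSO vehicle-treated spheroids.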

## C=CC(=O)N1CCN(c2nc(=O)n(-c3c(C)ccnc3C(C)C)c3nc(-c4c(O)cccc4F)c(F)cc23)C(C)C1 (stereo unspecified) + CC(Nc1ncnc2nc[nH]c12)c1cc2cccc(Cl)c2c(=O)n1-c1ccccc1
Second compound 0.0316 µM
  IC50: > 10000 nM
Second compound 0.1 µM
  IC50: > 10000 nM
Second compound 0.316 µM
  IC50: > 10000 nM
Second compound 1 µM
  IC50: > 10000 nM
Second compound 3.16 µM
  IC50: 9100 nM
Second compound 10 µM
  IC50: 5290 nM
[1]
  viability, T/C: 95.3%
[2]
  viability, T/C: 94.3%
[3]
  viability, T/C: 94.6%
[4]
  viability, T/C: 94.3%
[5]
  viability, T/C: 106%
[6]
  viability, T/C: 58.9%
[7]
  viability, T/C: 104%
[8]
  viability, T/C: 88.7%
[9]
  viability, T/C: 87.2%
[10]
  viability, T/C: 84.1%
[11]
  viability, T/C: 108%
[12]
  viability, T/C: 57.6%
[13]
  viability, T/C: 108%
[14]
  viability, T/C: 103%
[15]
  viability, T/C: 98.9%
[16]
  viability, T/C: 112%
[17]
  viability, T/C: 105%
[18]
  viability, T/C: 61%
[19]
  viability, T/C: 101%
[20]
  viability, T/C: 105%
[21]
  viability, T/C: 106%
[22]
  viability, T/C: 112%
[23]
  viability, T/C: 99.4%
[24]
  viability, T/C: 53.4%
[25]
  viability, T/C: 96.3%
[26]
  viability, T/C: 88.3%
[27]
  viability, T/C: 90.6%
[28]
  viability, T/C: 93.1%
[29]
  viability, T/C: 88.2%
[30]
  viability, T/C: 46.6%
[31]
  viability, T/C: 63.9%
[32]
  viability, T/C: 60.9%
[33]
  viability, T/C: 65.6%
[34]
  viability, T/C: 68.6%
[35]
  viability, T/C: 64.5%
[36]
  viability, T/C: 32%

## Cn1ncc(Cl)c1-c1cc(C(=O)NC(CN)Cc2cccc(F)c2)sc1Cl (stereo unspecified) + CC(Nc1ncnc2nc[nH]c12)c1cc2cccc(Cl)c2c(=O)n1-c1ccccc1
Second compound 0.0316 µM
  IC50: 144 nM
Second compound 0.1 µM
  IC50: 174 nM
Second compound 0.316 µM
  IC50: 164 nM
Second compound 1 µM
  IC50: 150 nM
Second compound 3.16 µM
  IC50: 125 nM
Second compound 10 µM
  IC50: 70.7 nM
[1]
  viability, T/C: 88.2%
[2]
  viability, T/C: 58.2%
[3]
  viability, T/C: 32.5%
[4]
  viability, T/C: 20.9%
[5]
  viability, T/C: 13.4%
[6]
  viability, T/C: 3.64%
[7]
  viability, T/C: 81.7%
[8]
  viability, T/C: 64.9%
[9]
  viability, T/C: 33.2%
[10]
  viability, T/C: 20.6%
[11]
  viability, T/C: 13.3%
[12]
  viability, T/C: 6.15%
[13]
  viability, T/C: 86.4%
[14]
  viability, T/C: 62.4%
[15]
  viability, T/C: 32.8%
[16]
  viability, T/C: 21.4%
[17]
  viability, T/C: 13.1%
[18]
  viability, T/C: 4.15%
[19]
  viability, T/C: 72.2%
[20]
  viability, T/C: 59.6%
[21]
  viability, T/C: 33.7%
[22]
  viability, T/C: 18.5%
[23]
  viability, T/C: 11.6%
[24]
  viability, T/C: 3.79%
[25]
  viability, T/C: 78.5%
[26]
  viability, T/C: 55.3%
[27]
  viability, T/C: 30.4%
[28]
  viability, T/C: 17.1%
[29]
  viability, T/C: 9%
[30]
  viability, T/C: 2.75%
[31]
  viability, T/C: 62.5%
[32]
  viability, T/C: 44.8%
[33]
  viability, T/C: 25.2%
[34]
  viability, T/C: 12.3%
[35]
  viability, T/C: 6.81%
[36]
  viability, T/C: 2.88%

## Cn1nccc1Nc1nccc(-c2ccn(C(CO)c3ccc(Cl)c(F)c3)c(=O)c2)n1 (stereo unspecified) + CC(Nc1ncnc2nc[nH]c12)c1cc2cccc(Cl)c2c(=O)n1-c1ccccc1
Second compound 0.0316 µM
  IC50: 544 nM
Second compound 0.1 µM
  IC50: 472 nM
Second compound 0.316 µM
  IC50: 471 nM
Second compound 1 µM
  IC50: 345 nM
Second compound 3.16 µM
  IC50: 168 nM
Second compound 10 µM
  IC50: 35.5 nM
[1]
  viability, T/C: 94%
[2]
  viability, T/C: 84%
[3]
  viability, T/C: 62.2%
[4]
  viability, T/C: 36.6%
[5]
  viability, T/C: 24%
[6]
  viability, T/C: 20.7%
[7]
  viability, T/C: 91.1%
[8]
  viability, T/C: 88.1%
[9]
  viability, T/C: 54.7%
[10]
  viability, T/C: 37.1%
[11]
  viability, T/C: 23.6%
[12]
  viability, T/C: 19.9%
[13]
  viability, T/C: 104%
[14]
  viability, T/C: 89.6%
[15]
  viability, T/C: 56.9%
[16]
  viability, T/C: 35.1%
[17]
  viability, T/C: 23.1%
[18]
  viability, T/C: 18.5%
[19]
  viability, T/C: 98.4%
[20]
  viability, T/C: 77.4%
[21]
  viability, T/C: 51.4%
[22]
  viability, T/C: 31.3%
[23]
  viability, T/C: 21.3%
[24]
  viability, T/C: 15.7%
[25]
  viability, T/C: 79.3%
[26]
  viability, T/C: 61.2%
[27]
  viability, T/C: 36%
[28]
  viability, T/C: 21.8%
[29]
  viability, T/C: 14.9%
[30]
  viability, T/C: 13%
[31]
  viability, T/C: 51.3%
[32]
  viability, T/C: 39.2%
[33]
  viability, T/C: 27.9%
[34]
  viability, T/C: 15%
[35]
  viability, T/C: 10.6%
[36]
  viability, T/C: 6.93%
